Data as given in patent publication US8106212B2, “Substituted enaminocarbonyl compounds” (Bayer Cropscience AG, priority 2006, dated 2012).

How the values were obtained:
Type in all cases: in vivo
Boophilus microplus = Boophilus microplus test (BOOPMI injection); conditions: 20 μg/Tier injected into abdomen, 100% = no tick has laid fertile eggs
Procedure: [table] To produce a suitable preparation of active compound, 1 part by weight of active compound is mixed with the stated amounts of solvent, and the concentrate is diluted with solvent to the desired concentration. The solution of active compound is injected into the abdomen (Boophilus microplus), and the animals are transferred into dishes and kept in a temperature-controlled room. After the desired period of time, the effect in % is determined. 100% means that no tick has laid any fertile eggs.

[1] = tested on: larvae of the banded cucumber beetle (Diabrotica balteata); assay: Diabrotica balteata test, larvae in soil (DIABBA); conditions: 2 ppm in soil (mg/l), efficacy calculated from emerged maize plants
Procedure: [table] To produce a suitable preparation of active compound, 1 part by weight of active compound is mixed with the stated amounts of solvent and emulsifier, and the concentrate is diluted with water to the desired concentration. The active compound preparation is mixed with soil. The stated concentration refers to the amount of active compound per volume unit of soil (mg/l=ppm). The treated soil is filled into pots, and 5 maize corns are placed into each pot. 3 days after sowing, larvae of the banded cucumber beetle (Diabrotica balteata) are placed into the treated soil. After the desired period of time, the kill in % is determined. The efficacy is calculated from the number of maize plants that have emerged.

[2] = tested on: green peach aphid (Myzus persicae); assay: Myzus persicae test, hydroponic treatment (MYZUPE sys.); conditions: 4 ppm in water (mg/l), pea plant
Procedure: [table] To produce a suitable preparation of active compound, 1 part by weight of active compound is mixed with the stated amounts of solvent and emulsifier, and the concentrate is diluted with water to the desired concentration. The preparation of active compound is mixed with water. The stated concentration refers to the amount of active compound per volume unit of water (mg/l=ppm). The treated water is filled into containers housing a pea plant (Pisum sativum) which is then infected with the green peach aphid (Myzus persicae). After the desired period of time, the kill in % is determined. 100% means that all aphids have been killed; 0% means that none of the aphids have been killed.

[3] = tested on: green peach aphid (Myzus persicae); assay: Myzus test (MYZUPE spray treatment); conditions: Chinese cabbage discs sprayed
Procedure: [table] To produce a suitable preparation of active compound, 1 part by weight of active compound is mixed with the stated amounts of solvent and emulsifier, and the concentrate is diluted with emulsifier-containing water to the desired concentration. Discs of Chinese cabbage (Brassica pekinensis) which are infected by all stages of the green peach aphid (Myzus persicae) are sprayed with a preparation of active compound of the desired concentration. After the desired period of time, the effect in % is determined. 100% means that all aphids have been killed; 0% means that none of the aphids have been killed. [table] To produce a suitable preparation of active compound, 1 part by weight of active compound is mixed with the stated amounts of solvent and emulsifier, and the concentrate is diluted with emulsifier-containing water to the desired concentration. Discs of Chinese cabbage (Brassica pekinensis) which are infected by all stages of the green peach aphid (Myzus persicae) are sprayed with a preparation of active compound of the desired concentration. After the desired period of time, the effect in % is determined. 100% means that all aphids have been killed; 0% means that none of the aphids have been killed.

[4] = tested on: larvae of the mustard beetle (Phaedon cochleariae); assay: Phaedon test (PHAECO spray treatment); conditions: 500 g/ha, Chinese cabbage discs sprayed
Procedure: [table] To produce a suitable preparation of active compound, 1 part by weight of active compound is mixed with the stated amounts of solvent and emulsifier, and the concentrate is diluted with emulsifier-containing water to the desired concentration. Discs of Chinese cabbage (Brassica pekinensis) are sprayed with a preparation of active compound of the desired concentration and, after drying, populated with larvae of the mustard beetle (Phaedon cochleariae). After the desired period of time, the effect in % is determined. 100% means that all beetle larvae have been killed; 0% means that none of the beetle larvae have been killed.

[5] = tested on: adult fleas (Ctenocephalides felis); assay: Ctenocephalides felis; oral (CTECFE); conditions: 4 ppm in citrated cattle blood
Procedure: [table] To produce a suitable preparation of active compound, 1 part by weight of active compound is mixed with the stated amount of solvent. Part of the concentrate is diluted with citrated cattle blood, and the desired concentration is prepared. 20 unfed adult fleas (Ctenocephalides felis) are placed into a chamber whose top and bottom ends are closed with gauze. A metal cylinder whose bottom end is closed with parafilm is placed onto the chamber. The cylinder contains the blood/active compound preparation, which can be taken up by the fleas through the parafilm membrane. The blood is warmed to 37° C., but the flea chamber is at room temperature. After the desired period of time, the kill in % is determined. 100% means that all fleas have been killed; 0% means that none of the fleas have been killed.

[6] = tested on: cotton aphid (Aphis gossypii); assay: Aphis gossypii test (APHIGO), leaf dip; conditions: 0.8 ppm, cotton leaves dipped
Procedure: [table] To produce a suitable preparation of active compound, 1 part by weight of active compound is mixed with the stated amounts of solvent and emulsifier, and the concentrate is diluted with emulsifier-containing water to the desired concentration. Cotton leaves (Gossypium hirsutum) which are heavily infested by the cotton aphid (Aphis gossypii) are treated by being dipped into the preparation of active compound of the desired concentration. After the desired period of time, the kill in % is determined. 100% means that all aphids have been killed; 0% means that none of the aphids have been killed.

[7] = tested on: green peach aphid (Myzus persicae); assay: Myzus test; oral (MYZUPE O); conditions: 0.0064 ppm, oral uptake by sucking
Procedure: Myzus Test; Oral; (MYZUPE O) Solvent: 80 parts by weight of acetone To produce a suitable preparation of active compound, 1 part by weight of active compound is mixed with the stated amounts of solvent, and the concentrate is diluted with water to the desired concentration. Containers are populated with all stages of the green peach aphid (Myzus persicae), treatment is by sucking at the preparation of active compound of the desired concentration. After the desired period of time, the effect in % is determined. 100% means that all aphids have been killed; 0% means that none of the aphids have been killed.

Meloidogyne incognita = assay: Meloidogyne test (MELGIN spray treatment); conditions: 4 ppm, nematicidal activity by formation of galls on lettuce roots (100% = no galls)
Procedure: [table] To produce a suitable preparation of active compound, 1 part by weight of active compound is mixed with the stated amounts of solvent, and the concentrate is diluted with water to the desired concentration. Containers are filled with sand, active compound solution, Meloidogyne incognita egg/larvae suspension and lettuce seeds. The lettuce seeds germinate and the plants develop. On the roots, galls are formed. After the desired period of time, the nematicidal activity is determined by the formation of galls in %. 100% means that no galls were found; 0% means that the number of galls on the treated plants corresponds to that of the untreated controls.

Lucilia cuprina larvae = assay: Lucilia cuprina test (LUCICU); conditions: 4 ppm, treated horse meat
Procedure: [table] To produce a suitable preparation of active compound, 1 part by weight of active compound is mixed with the stated amounts of solvent, and the concentrate is diluted with water to the desired concentration. Containers containing horse meat treated with the preparation of active compound of the desired concentration are populated with Lucilia cuprina larvae. After the desired period of time, the kill in % is determined. 100% means that all larvae have been killed; 0% means that none of the larvae have been killed.

[8] = 4 g/ha, Biological Examples table
[9] = 20 g/ha, Biological Examples table
[10] = 100 g/ha, Biological Examples table

CN(Cc1cnc(Cl)c(F)c1)C1=CC(=O)OC1 [Example 1, 4-[[(6-Chloro-5-fluoropyridin-3-yl)methyl](methyl)amino]furan-2(5H)-one]
Kill rate in % after 7 days (Boophilus microplus): 30% | Kill rate in % after 10 days [1]: 100%

CON(Cc1cnc(Cl)c(Cl)c1)C1=CC(=O)OC1 [Example 2, 4-[[(5,6-Dichloropyridin-3-yl)methyl](methoxy)amino]furan-2(5H)-one]
Kill rate in % after 7 days (Boophilus microplus): 30%

O=C1C=C(N(Cc2cnc(Cl)c(I)c2)C2CC2)CO1 [Example 3, 4-[[(6-Chloro-5-iodopyridin-3-yl)methyl](cyclopropyl)amino]furan-2(5H)-one]
Kill rate in % after 7 days (Boophilus microplus): 40%

CN(Cc1cnc(Br)c(Cl)c1)C1=CC(=O)OC1 [Example 4, 4-[[(6-Bromo-5-chloropyridin-3-yl)methyl](methyl)amino]furan-2(5H)-one]
Kill rate in % after 5 days [2]: 100%

CN(Cc1cnc(Cl)nc1)C1=CC(=O)OC1 [Example 5, 4-[[(2-Chloropyrimidin-5-yl)methyl](methyl)amino]furan-2(5H)-one]
Kill rate in % after 5 days [3, 8]: 100%

O=C1C=C(N(Cc2cnc(Cl)nc2)C2CC2)CO1 [Example 6, 4-[[(2-Chloropyrimidin-5-yl)methyl](cyclopropyl)amino]furan-2(5H)-one]
Kill rate in % after 5 days [3, 9]: 100%

CC1OC(=O)C=C1N(C)Cc1cnc(Cl)c(Cl)c1 (centres unmarked) [Example 7, 4-[[(5,6-dichloropyridin-3-yl)methyl](methyl)amino]-5-methylfuran-2(5H)-one]
Kill rate in % after 5 days [3, 10]: 90%

CN(Cc1cnc(Cl)c(Cl)c1)C1=C(Cl)C(=O)OC1 [Example 8, 3-Chloro-4-[[(5,6-dichloropyridin-3-yl)methyl](methyl)amino]furan-2(5H)-one]
Kill rate in % after 5 days [3, 10]: 80%

CN(Cc1cnc(Cl)c(Cl)c1)C1=CC(=O)OC1 [Example 10, 4-[[(5,6-dichloropyridin-3-yl)methyl](methyl)amino]furan-2(5H)-one]
Kill rate in % after 5 days [3, 8]: 100% | Kill rate in % after 5 days ([3]; 20 g/ha, comparative table): 100% | Kill rate in % after 7 days [4]: 100%

O=C1C=C(N(Cc2cnc(Cl)c(Cl)c2)C2CC2)CO1 [Example 11]
Kill rate in % after 5 days [3, 8]: 100% | Kill rate in % after 5 days ([3]; 100 g/ha, comparative table): 100% | Kill rate in % after 7 days (Boophilus microplus): 50% | Kill rate in % after 2 days [5]: 50% | Kill rate in % after 7 days [4]: 100%

Cc1cc(CN(C2=CC(=O)OC2)C2CC2)cnc1Cl [Example 12]
Kill rate in % after 6 days [6]: 50%

Cc1cc(CN(C)C2=CC(=O)OC2)cnc1Cl [Example 13]
Kill rate in % after 5 days [7]: 70%

CN(Cc1cnc(Cl)c(Br)c1)C1=CC(=O)OC1 [Example 14]
Kill rate in % after 5 days [3, 9]: 100%

O=C1C=C(N(Cc2cnc(Cl)c(Br)c2)C2CC2)CO1 [Example 15]
Kill rate in % after 14 days (Meloidogyne incognita): 70% | Kill rate in % after 6 days [6]: 40%

CCN(Cc1cnc(Cl)c(Cl)c1)C1=CC(=O)OC1 [Example 16]
Kill rate in % after 5 days [3, 9]: 100%

O=C1C=C(N(Cc2cnc(Cl)c(Cl)c2)C2CC2)CC1 [Example 17]
Kill rate in % after 5 days [3, 10]: 100%

CN(Cc1cnc(Cl)c(C#N)c1)C1=CC(=O)OC1 [Example 18]
Kill rate in % after 5 days [3, 10]: 100%

CN(Cc1cnc(Cl)c(I)c1)C1=CC(=O)OC1 [Example 19]
Kill rate in % after 5 days [3, 9]: 70%

CCN(Cc1cnc(Cl)c(C)c1)C1=CC(=O)OC1 [Example 20]
Kill rate in % after 7 days (Boophilus microplus): 30%

O=C1C=C(N(Cc2cnc(Br)c(Br)c2)C2CC2)CO1 [Example 21]
Kill rate in % after 5 days [3, 9]: 80%

CN(Cc1cnc(Br)c(Br)c1)C1=CC(=O)OC1 [Example 22]
Kill rate in % after 5 days [2]: 100%

O=C1C=C(N(Cc2cnc(Br)c(Cl)c2)C2CC2)CO1 [Example 23]
Kill rate in % after 7 days (Boophilus microplus): 30%

CN(Cc1cnc(Br)c(F)c1)C1=CC(=O)OC1 [Example 24]
Kill rate in % after 5 days [3, 8]: 100% | Kill rate in % after 5 days [2]: 100%

O=C1C=C(N(Cc2cnc(Br)c(F)c2)C2CC2)CO1 [Example 25]
Kill rate in % after 5 days [3, 8]: 100% | Kill rate in % after 2 days (Lucilia cuprina larvae): 100%

O=C1C=C(N(Cc2cnc(Cl)c(F)c2)C2CC2)CO1 [Example 26]
Kill rate in % after 2 days [5]: 60%
